Assay results reported in patent US7018642B2 (The Procter & Gamble Company, priority 2001, dated 2006).

What was measured:
Type in all cases: cell-based
[1] = tested on: P. aeruginosa strain PAO1; assay: Biofilm prevention screen (96-well microplate, crystal violet); conditions: Pseudomonas aeruginosa, positive = prevention, negative = enhancement of biofilm formation, quadruplicate, read-out: average percentage reduction of biofilm formed relative to DMSO controls
Protocol: (§1) Overnight cultures of 3 mL are made of P. aeruginosa strain PAO1 (grown in R2A medium (Handbook of Microbiological Media; CRC Press, 1997, second edition, R. M. Atlas, ed.), modified to omit Mg^2+ but to include 0.3–0.5% fructose (pH 7.0) and 3 μM ferrous ammonium sulfate), P. fluorescens strain ATCC 13525 (grown in R2A modified to omit Mg^2+ but to include 0.3–0.5% sodium pyruvate (pH 7.0)), S. epidermidis strain ATCC 35984 (grown in a ¼ dilution of TSB (Handbook of Microbiological Media; CRC Press, 1997, second edition, R. M. Atlas, ed.) supplemented with 1% fructose (pH 7.0) and 3 μM ferrous ammonium sulfate). To each type of growth medium, HEPES (pH 7.3) is optionally added to a final concentration of 10 mM.
(§2) To PS, PVC, or PP (preferably PP or PVC) round-bottom, 96-well microplates containing 100 μl per well of the respective growth medium as described above, compounds to be tested (dissolved in DMSO) are added and mixed, to give a final concentration of 250–500 μM. These microplates then also are used to make successive dilutions of the compounds in the same respective growth medium to yield microplates containing final concentrations of, for example, 160 μM and 32 μM of the same set of compounds. Control wells are included in the dilution series that contain only DMSO. From the 3 ml overnight cultures, each of the three dilution plate sets is inoculated with 5 μl per well of a 1:1 dilution in the same liquid growth media of the appropriate culture. The covered plate is then incubated with shaking, at 30° C. (for P. aeruginosa or P. fluorescens) or 37° C. (for S. epidermidis), at 200 rpm, for 16–26 hours, in a humidity controlled environment.
(§3) Cells present in biofilm attached to the microplate surface are stained with CV either after removal of the liquid from each well, followed by rinsing three times (aspiration and addition) with 150 μl per well phosphate buffered saline solution (PBS) and final addition of 100 μl per well of PBS, or by direct addition of stain to bacterial cultures without rinsing. To 100 μl per well of PBS or of bacterial culture, 25 μl/well of 1% CV solution (in ˜10% ethanol) is added. After incubation at room temperature for 45 minutes, the dye solution is removed from the plates. Residual dye is immediately removed by gentle rinsing with a stream of deionized water by filling and inverting the plates 4–5 times, or by using an automated pipettor. Rinsed plates are air-dried at room temperature for 0.5–2 hours. Bound dye is extracted by the addition of 150 μL per well of 95% ethanol, followed by vigorous mixing for 10–15 seconds and incubation for 45 minutes at room temperature without shaking. Subsequently, either undiluted or diluted (in ethanol) samples of extracted CV are transferred to flat bottom, polystyrene microtiter plates and absorbances at 586 nm were measured in a microplate reader. Readings from wells containing compounds are compared to the average of data from control wells that contain only DMSO. Replicate samples are measured, and results are reported as averages of the replicate well data points.
(§4) Data are expressed in terms of the average percentage reduction of biofilm formed in the presence of each compound, relative to the DMSO controls, for quadruplicate samples. Assays are run using the three compound concentrations indicated. Positive numbers indicate prevention of biofilm formation by a compound, and negative numbers indicate enhancement of biofilm formation by a compound (percentage coefficients of variation are ≦10%).

[2] = tested on: P. fluorescens strain ATCC 13525; assay: as above; conditions: Pseudomonas fluorescens, positive = prevention, negative = enhancement of biofilm formation, quadruplicate, read-out: average percentage reduction of biofilm formed relative to DMSO controls; for inhibition at 32 µM: ATCC13525, 32 μM; for inhibition at 160 µM: ATCC13525, 160 μM; for inhibition at 390 µM: ATCC13525, 390 μM
Protocol: as §1, §2, §3, §4

[3] = tested on: S. epidermidis strain ATCC 35984; assay: as above; conditions: Staphylococcus epidermidis, positive = prevention, negative = enhancement of biofilm formation, quadruplicate, read-out: average percentage reduction of biofilm formed relative to DMSO controls; for inhibition at 32 µM: ATCC35984, 32 μM; for inhibition at 160 µM: ATCC35984, 160 μM; for inhibition at 390 µM: ATCC35984, 390 μM
Protocol: as §1, §2, §3, §4

[4] = tested on: P. aeruginosa strain PAO1; assay: Improved biofilm dispersion screen (already-formed biofilms, crystal violet); conditions: Pseudomonas aeruginosa, 30 mM NaOH step, positive = dispersion, negative = enhancement of pre-existing biofilm, quadruplicate, read-out: average percentage reduction of biofilm relative to the two control values (dispersion)
Protocol: (§5) A modification of method disclosed in Reference Example 2, which greatly improves the sensitivity and reproducibility of the dispersion screen is hereby disclosed. […] In the modification described herein, compounds are added in the presence of the fresh liquid growth media, such that the resultant biofilms continue to grow, unless a test compound triggers their dispersion. Overnight cultures are made as above, and 100 μL of the appropriate liquid growth media are dispensed into duplicate 96 well microplates—in this fashion, two identical microplates are set up for each bacterial species to be assayed. Neither compounds nor DMSO are added prior to the inoculation of bacteria, and growth in the duplicate plates for 24 hours is allowed using the conditions specified in Reference Example 1. After growth of biofilm to be tested in the wells, cells present in biofilm attached to one of the duplicate microplates is stained with CV, quantitated as described in Reference Example 1, and the data for the entire plate averaged, resulting in a growth control value, t0. The remaining replicate of each microplate pairs is treated with compounds in DMSO, or DMSO alone for control wells, by first removing the cell suspensions from the wells, then adding fresh 100 μL volumes of the same appropriate liquid growth media, followed by direct addition and mixing of the compound DMSO solutions to give final compound concentrations of 390 μM. Incubation of the compound-containing microplates is then continued for an additional 22–26 hours using the same conditions described in Reference Example 1. Cell suspensions are then removed, 100 μL per well of a 0 mM NaOH (S. epidermidis), 20 mM NaOH (P. fluorescens), or 30 mM NaOH (P. aeruginosa) solution in PBS is added, and incubation at room temperature is allowed for 30 minutes. No addition of NaOH is made to the S. epidermidis suspension since a test assay indicated no amplification by base with S. epidermidis. The microplates are subsequently rinsed three times with 150 μL per well of PBS, followed by final liquid removal, staining with CV and quantitation as described in Reference Example 1. Data for each well that contained compound result in a compound value, R, and data for control wells that contained DMSO only are averaged to generate a second control value, t24. The effect of each compound tested on dispersion of the biofilm compared to the two control values is calculated thus: [formula] […] Data are expressed in terms of the average percentage reduction of biofilm formed in the presence of each compound, relative to the two control values, for quadruplicate samples. Assays are run as described above, using compound concentrations of 390 μM. Positive numbers indicate dispersion (reduction) of pre-existing biofilms by a compound, and negative numbers indicate enhancement (stimulation of growth) of pre-existing biofilms by a compound (percentage coefficients of variation are ≦15%).

[5] = tested on: P. fluorescens strain ATCC 13525; assay: as above; conditions: Pseudomonas fluorescens, ATCC13525, 20 mM NaOH step, positive = dispersion, negative = enhancement of pre-existing biofilm, quadruplicate, read-out: average percentage reduction of biofilm relative to the two control values (dispersion)
Protocol: as §5

[6] = tested on: S. epidermidis strain ATCC 35984; assay: as above; conditions: Staphylococcus epidermidis, ATCC35984, no NaOH, positive = dispersion, negative = enhancement of pre-existing biofilm, quadruplicate, read-out: average percentage reduction of biofilm relative to the two control values (dispersion)
Protocol: as §5

SMILES	inhibition at 32 µM [1] [%]	inhibition at 160 µM [1] [%]	inhibition at 390 µM [1] [%]	inhibition at 32 µM [2] [%]	inhibition at 160 µM [2] [%]	inhibition at 390 µM [2] [%]	inhibition at 32 µM [3] [%]	inhibition at 160 µM [3] [%]	inhibition at 390 µM [3] [%]	inhibition at 390 µM [4] [%]	inhibition at 390 µM [5] [%]	inhibition at 390 µM [6] [%]
CCCCCCCCNC(=O)[C@H]1CCCCN1C(=O)CCCCCCC [Compound 28, 1-Octanoyl-(R)-(+)-2-piperidinecarboxylic acid n-octyl amide]	0	-3	-9	21	38	26	-5	-44	-51	-25	10	-8
CCCCCCCCCCCCNC(=O)[C@@H]1CCN1C(=O)OC(C)(C)C [Compound 286]	-5	-22	-54	-9	-60	-98	-15	-29	12	-83	–	0
CCCCNC(=O)[C@@H]1CCCN1 [Compound 165]	2	-16	1	10	4	20	-6	-15	-12	0	6	-3
CCCCCCNC(=O)[C@@H]1CCN1 [Compound 287]	-1	11	-2	-42	-7	40	74	101	101	-70	-18	71
CCCCNC(=O)[C@H]1CCCN1C(=O)OC(C)(C)C [Compound 152]	-4	-9	2	5	5	-7	-5	-13	-8	-9	1	-4
CCCCNC(=O)[C@H]1CCCN1 [Compound 162]	-9	-13	-9	7	1	11	-4	-8	-47	-23	0	0
CCCCCCCCNC(=O)[C@@H]1CCCN1C(=O)OC(C)(C)C [Compound 11]	-6	-18	-15	-4	-6	-26	10	-60	37	-56	-23	0
CCCCCCNC(=O)[C@H]1CCCN1 [Compound 163]	1	22	46	5	6	22	-3	-5	-10	4	12	-5
CCCCCCCCNC(=O)[C@@H]1CCN1 [Compound 288]	12	97	96	-14	40	59	101	101	99	-32	-2	72
